Data taken from ChEMBL document CHEMBL1201862, “PubChem BioAssay data set” (2004).
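1) Cells in 96-well plates. 2) Compound, 48 h, 5 concentrations. 3) Linear interpolation between surrounding doses. 4) Unreached endpoint = highest concentration. At the GI50, growth is halved.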 Calls of active or inactive are those of the source. Cut-off read from the data, not from the text of the source: active = GI50 up to about 1.1 µM and inactive = higher. *1 amine or outer side, *2 acyl side, *3 side chain or, on linkers, in order; H or OH if unused. Where a SMILES comes first, the peptide text is derived from it. Bridges are numbered along the chain shown (N, C = ends). Roman numbers before positions name the chains, in order. [ ]: non-standard residue; d: D form. Actinocin(9to1) = Cc1c2oc3c(C)ccc(C(=O)[*:1])c3nc-2c(C(=O)[*:2])c(N)c1=O; NMeV = CN[CH](C(=O)O)C(C)C; Sar = CNCC(=O)O

What was measured:
Assay in all cases: NCI-60 cell line screen, 48 h
[1] = test system: SF-295
[2] = test system: SK-MEL-28
[3] = test system: IGROV-1
[4] = test system: HOP-92
[5] = test system: HOP-62
[6] = test system: TK-10
[7] = test system: HT-29
[8] = test system: SR
[9] = test system: ACHN
[10] = test system: OVCAR-8
[11] = test system: NCI-H522
[12] = test system: SNB-75
[13] = test system: LOX IMVI
[14] = test system: MOLT-4
[15] = test system: CCRF-CEM
[16] = test system: OVCAR-4
[17] = test system: UO-31
[18] = test system: HCC 2998
[19] = test system: SN12C
[20] = test system: EKVX

| SMILES | GI50 [1] | GI50 [2] | GI50 [3] | GI50 [4] | GI50 [5] | GI50 [6] | GI50 [7] | GI50 [8] | GI50 [9] | GI50 [10] | GI50 [11] | GI50 [12] | GI50 [13] | GI50 [14] | GI50 [15] | GI50 [16] | GI50 [17] | GI50 [18] | GI50 [19] | GI50 [20] |
| --- | --- | --- | --- | --- | --- | --- | --- | --- | --- | --- | --- | --- | --- | --- | --- | --- | --- | --- | --- | --- |
| CC1(CO)OC(n2cnc3c(N)ncnc32)C(O)C1O (stereo not drawn) | > 100 µM (inactive) | > 100 µM (inactive) | > 100 µM (inactive) | > 100 µM (inactive) | > 100 µM (inactive) | > 100 µM (inactive) | > 100 µM (inactive) | > 100 µM (inactive) | > 100 µM (inactive) | > 100 µM (inactive) | > 100 µM (inactive) | 87.3 µM (inactive) | > 100 µM (inactive) | > 100 µM (inactive) | > 100 µM (inactive) | > 100 µM (inactive) | > 100 µM (inactive) | > 100 µM (inactive) | > 100 µM (inactive) |  |
| O=C1NC(c2cccc3ccccc23)Nc2ccccc21 (stereo not drawn) | < 0.0202 µM (active) | 0.127 µM (active) | 0.0457 µM (active) | 0.172 µM (active) | 0.139 µM (active) | 0.157 µM (active) |  | < 0.0153 µM (active) | 0.0708 µM (active) | 0.105 µM (active) |  | 0.0111 µM (active) | 0.0906 µM (active) | 0.0528 µM (active) | 0.01 µM (active) | 0.00931 µM (active) | 1.05 µM (active) | 0.0736 µM (active) | 0.132 µM (active) | 0.143 µM (active) |
| Cc1ccc(C2(O)c3ccccc3C(=O)N(C)C2(O)c2ccc(C)cc2)cc1 (stereo not drawn) | 38.1 µM (inactive) | > 100 µM (inactive) | > 100 µM (inactive) | 18.6 µM (inactive) | 22 µM (inactive) | > 100 µM (inactive) | 46.8 µM (inactive) | 2.39 µM (inactive) |  | 25.5 µM (inactive) | > 100 µM (inactive) |  | 25.5 µM (inactive) | 12.8 µM (inactive) | 15.4 µM (inactive) | 18.2 µM (inactive) | 57.8 µM (inactive) | 79.3 µM (inactive) | 58.3 µM (inactive) | 32.8 µM (inactive) |
| Clc1cc(Cl)cc(C2SCc3nc4ccccc4n32)c1 (stereo not drawn) | 14.5 µM (inactive) | 13.8 µM (inactive) |  | 14.4 µM (inactive) |  | 27.7 µM (inactive) | 12 µM (inactive) | 17.2 µM (inactive) | 22.9 µM (inactive) | 17 µM (inactive) | 14.3 µM (inactive) | 43.4 µM (inactive) |  | 11.7 µM (inactive) | 9.79 µM (inactive) |  | 19.3 µM (inactive) | > 10 µM (inactive) | 15.2 µM (inactive) | 22.6 µM (inactive) |
| CC1=C2c3ccccc3N(C(=O)/C=C/C(=O)O)[C@H]2[C@H]2C(=O)OC(=O)[C@H]2C1 | > 10 µM (inactive) | > 10 µM (inactive) | > 10 µM (inactive) |  | > 10 µM (inactive) | > 10 µM (inactive) | > 10 µM (inactive) | > 10 µM (inactive) | > 10 µM (inactive) | > 10 µM (inactive) | > 10 µM (inactive) | > 10 µM (inactive) |  | > 10 µM (inactive) | > 10 µM (inactive) | > 10 µM (inactive) | > 10 µM (inactive) | > 10 µM (inactive) | > 10 µM (inactive) | > 10 µM (inactive) |
| COC1OC2COC1(OC)C1OC(C)(C)OC21 (stereo not drawn) | > 100 µM (inactive) | > 100 µM (inactive) | > 100 µM (inactive) |  | > 100 µM (inactive) | > 100 µM (inactive) | > 100 µM (inactive) | > 100 µM (inactive) | > 100 µM (inactive) | > 100 µM (inactive) | > 100 µM (inactive) | > 100 µM (inactive) |  | > 100 µM (inactive) | > 100 µM (inactive) | > 100 µM (inactive) | > 100 µM (inactive) | > 100 µM (inactive) | > 100 µM (inactive) | > 100 µM (inactive) |
| Clc1ccc(CCn2ccc3ccccc32)c(Cl)c1 | > 100 µM (inactive) |  | > 100 µM (inactive) | > 100 µM (inactive) | > 100 µM (inactive) | > 100 µM (inactive) | > 100 µM (inactive) | > 100 µM (inactive) | > 100 µM (inactive) | > 100 µM (inactive) | > 100 µM (inactive) | > 100 µM (inactive) |  | > 100 µM (inactive) | > 100 µM (inactive) | > 100 µM (inactive) | > 100 µM (inactive) | > 100 µM (inactive) | > 100 µM (inactive) | > 100 µM (inactive) |
| CN(C)N1C(=O)C(=O)N(c2cccc3ccccc23)C1=O | > 10 µM (inactive) | > 10 µM (inactive) | > 10 µM (inactive) |  | > 10 µM (inactive) | > 10 µM (inactive) | > 10 µM (inactive) | > 10 µM (inactive) | > 10 µM (inactive) | > 10 µM (inactive) | > 10 µM (inactive) | > 10 µM (inactive) | > 10 µM (inactive) | > 10 µM (inactive) | > 10 µM (inactive) | > 10 µM (inactive) | > 10 µM (inactive) | > 10 µM (inactive) | > 10 µM (inactive) | > 10 µM (inactive) |
| CC1(CO)COS(=O)OC1 (stereo not drawn) | > 100 µM (inactive) | > 100 µM (inactive) |  | > 100 µM (inactive) |  | > 100 µM (inactive) | > 100 µM (inactive) | > 100 µM (inactive) | > 100 µM (inactive) | > 100 µM (inactive) | > 100 µM (inactive) | > 100 µM (inactive) | > 100 µM (inactive) | > 100 µM (inactive) | > 100 µM (inactive) | > 100 µM (inactive) | > 100 µM (inactive) | > 100 µM (inactive) | > 100 µM (inactive) |  |
| c1ccc(/N=C(\N2CCCCC2)N(CCN2CCCCC2)c2ccccc2)cc1 | 1.04 µM (active) | 1.99 µM (inactive) | 0.396 µM (active) | 1.44 µM (inactive) | 1.43 µM (inactive) | 2.96 µM (inactive) | 0.141 µM (active) | 0.28 µM (active) | 1.58 µM (inactive) | 2.01 µM (inactive) | 0.428 µM (active) | 2.28 µM (inactive) | 0.622 µM (active) | 0.279 µM (active) | 1 µM (active) | 1.2 µM (inactive) | 1.68 µM (inactive) | 1.69 µM (inactive) | 2.11 µM (inactive) |  |
| N[C@]1(C(=O)O)C[C@@H]2C(Br)=NO[C@@H]2C1 | > 100 µM (inactive) |  |  | > 100 µM (inactive) | > 100 µM (inactive) | > 100 µM (inactive) | > 100 µM (inactive) | 78.9 µM (inactive) | > 100 µM (inactive) | > 100 µM (inactive) | > 100 µM (inactive) | > 100 µM (inactive) |  | > 100 µM (inactive) |  | > 100 µM (inactive) | > 100 µM (inactive) | > 100 µM (inactive) |  | 70.3 µM (inactive) |
| O=C(O)C(=C\c1ccc2c(c1)OCO2)/C(=C/c1ccc2c(c1)OCO2)C(=O)O | > 100 µM (inactive) | > 100 µM (inactive) | > 100 µM (inactive) | > 100 µM (inactive) | > 100 µM (inactive) | > 100 µM (inactive) | > 100 µM (inactive) | > 100 µM (inactive) |  | > 100 µM (inactive) |  | > 100 µM (inactive) | > 100 µM (inactive) | > 100 µM (inactive) | > 100 µM (inactive) | > 100 µM (inactive) | > 100 µM (inactive) | > 100 µM (inactive) | > 100 µM (inactive) |  |
| N#CCCN(CCN(CCC#N)C(=O)Nc1ccccc1)C(=O)Nc1ccccc1 | 31.8 µM (inactive) | > 100 µM (inactive) | 68.9 µM (inactive) | 37.6 µM (inactive) | 20.8 µM (inactive) | > 100 µM (inactive) | > 100 µM (inactive) | > 100 µM (inactive) | > 100 µM (inactive) | 57.5 µM (inactive) | 32.3 µM (inactive) | 19.5 µM (inactive) | > 100 µM (inactive) | > 100 µM (inactive) | > 100 µM (inactive) |  | 85.7 µM (inactive) | > 100 µM (inactive) | > 100 µM (inactive) | 90.8 µM (inactive) |
| O=C1c2ccccc2C(=O)c2[nH]c(=O)c(/C=N/Nc3ccc([N+](=O)[O-])cc3)nc21 | 3.32 µM (inactive) | 5.47 µM (inactive) | 14.4 µM (inactive) | 15.2 µM (inactive) | 2.28 µM (inactive) | 16.1 µM (inactive) | 2.59 µM (inactive) | 17.5 µM (inactive) | 13.2 µM (inactive) | 15.8 µM (inactive) | 3.23 µM (inactive) |  | 3.56 µM (inactive) | 22.9 µM (inactive) | > 35.5 µM (inactive) | 18.4 µM (inactive) | 6.58 µM (inactive) | 1.61 µM (inactive) | 11.9 µM (inactive) | 24.1 µM (inactive) |
| Cc1c2oc3c(C)ccc(C(=O)NC4C(=O)NC(C(C)O)C(=O)N5CCCC5C(=O)N(C)CC(=O)N(C)C(C(C)C)C(=O)OC4C)c3nc-2c(C(=O)NC2C(=O)NC(C(C)O)C(=O)N3CCCC3C(=O)N(C)CC(=O)N(C)C(C(C)C)C(=O)OC2C)c(N)c1=O (stereo not drawn) (I: TTP[Sar][NMeV] / II: TTP[Sar][NMeV]; ester I:1-I:C, II:1-II:C; linker I:N-II:N via Actinocin(9to1); configuration not given here) | 0.453 µM (active) | 0.147 µM (active) | 0.135 µM (active) |  | 0.498 µM (active) | 0.643 µM (active) | 0.34 µM (active) | < 0.01 µM (active) | 0.427 µM (active) | 0.195 µM (active) | 0.0766 µM (active) | 0.198 µM (active) | 0.0493 µM (active) | 0.0527 µM (active) | 0.119 µM (active) | 0.931 µM (active) | 2 µM (inactive) | 1.54 µM (inactive) | 0.207 µM (active) |  |
